From patent US9434693B2, “Substituted pyrazoles as N-type calcium channel blockers” (Janssen Pharmaceutica NV, priority 2012, dated 2016)
Where two headings read alike, the source gives them in different places.

Experiments:
N-type calcium channel = N-type calcium channel (Homo sapiens (Human), UniProt Q00975); assay: Automated electrophysiology assay (QPatch-HT whole-cell patch clamp); type: cell-based
Description: Cells were grown in T175 flasks to 50%-90% confluence. At the time of use, cells were enzymatically treated with Detachin (Genlantis, San Diego, Calif. USA), centrifuged, rinsed, and resuspended in 293 SFM II media (Life Technologies, Grand Island, N.Y. U.S.A.) supplemented with 25 mM HEPES (Sigma-Aldrich, St. Louis, Mo. U.S.A.) to a concentration of 2-3×10^6 cells/mL. Cells were added to the automated cell preparation station on the QPatch-HT (Sophion Biosciences, North Brunswick, N.J. U.S.A.), and following a 10- to30-min recovery period with gentle stirring, the assay protocol was initiated. During the automated cell preparation, cells were collected, centrifuged and resuspended in an extracellular (EC) solution containing 132 mM NaCl, 1.8 mM CaCl2, 5.4 mM KCl, 0.8 mM MgCl2, 10 mM glucose, and 10 mM HEPES (pH=7.4), adjusted with sucrose to approximately 315 m0sm. The QPlate was primed with an intracellular solution containing 135 mM CsCl, 10 mM EGTA, 4 MgATP, 0.3 NaGTP, and 20 mM HEPES (pH=7.2), adjusted to approximately 290 m0sm with deionized water and the EC solution. Cells were added to the prepared QPlate wells by robotic pipettes of the QPatch-HT.
For cells determined to be in stable whole-cell patch clamp, the EC solution was replaced with a barium (Ba)/triethylammonium (TEA) solution containing 140 mM TEA-Cl, 10 mM BaCl2, 0.8 mM MgCl2, 10 mM glucose and 10 mM HEPES (pH=7.4). High (40 mM) BaCl2 concentrations were made with adjustments to TEA-Cl (90 mM) to maintain the osmolarity. From a resting potential of −80 mV, a train of depolarizing pulses (15 pulses at 5 Hz, +20 mV) was delivered to the cell once every 30 sec for […], and the resulting currents were measured during a control period (no compound). This protocol was repeated for each subsequent addition of control buffer with or without compound (three periods total, each with four trains). The current generated in the 1st and 15th pulses of the last train of each period in the presence of each drug concentration was normalized to the current generated during the control period at the respective pulses (representing low- and high-frequency stimulation, respectively). Data from both the second and third drug application periods were analyzed for each cell. A final addition of Ba/TEA solution containing 60-100 μM CdCl2 was made to block all N-type current and to “zero” the currents for each cell. All buffer/compound additions were made using a “spitting” feature of the QPatch-HT, which added three repetitions of 5 μL solution at the beginning of each recording period.
To examine closed-state inactivation, cells were subjected to a channel-activating 50-msec depolarizing step pulse from −80 to +10 mV, followed by a 5-sec nonactivating step to voltages ranging from −130 to −60 mV in 10 mV increments and then a 50-ms step from −80 to +10 mV to assess the remaining current. Currents from the activating voltage pulse were normalized to the peak value of the test pulse following the −130 mV step and fit to a Boltzman equation to obtain the V1/2. Roscovitine (Sigma-Aldrich) was prepared as a 100 mM stock in dimethyl sulfoxide and diluted to the indicated working concentrations. […]. Compounds of Formula (I) were diluted first into dimethyl sulfoxide and then into 10% pluronic F-127 in water (Life Technologies), sonicated for 1 min and diluted into EC buffer. Vehicle controls were run in parallel in all experiments.
Unless otherwise indicated, statistics for comparing among electrophysiological results utilized a one-way analysis of variance with Fisher's least squares determination test for pair-wise comparison.

[1] = target: N-type calcium channel (α1B (Cav2.2), β3 and α2δ subunits) in stable HEK cell line (Homo sapiens (Human), UniProt Q00975); assay: Functional assay (FDSS calcium mobilization): antagonism of N-type calcium channel; type: cell-based; conditions: for inhibition at 0.33 µM: HEK293; for inhibition at 0.33 µM / % Inhibition (%) at 0.33 μM: FDSS, 0.33 μM compound; for IC50: KCl (50 mM) depolarization, six-point concentration-response
Chain of N-type calcium channel (α1B (Cav2.2), β3 and α2δ subunits) in stable HEK cell line (Q00975 whole entry): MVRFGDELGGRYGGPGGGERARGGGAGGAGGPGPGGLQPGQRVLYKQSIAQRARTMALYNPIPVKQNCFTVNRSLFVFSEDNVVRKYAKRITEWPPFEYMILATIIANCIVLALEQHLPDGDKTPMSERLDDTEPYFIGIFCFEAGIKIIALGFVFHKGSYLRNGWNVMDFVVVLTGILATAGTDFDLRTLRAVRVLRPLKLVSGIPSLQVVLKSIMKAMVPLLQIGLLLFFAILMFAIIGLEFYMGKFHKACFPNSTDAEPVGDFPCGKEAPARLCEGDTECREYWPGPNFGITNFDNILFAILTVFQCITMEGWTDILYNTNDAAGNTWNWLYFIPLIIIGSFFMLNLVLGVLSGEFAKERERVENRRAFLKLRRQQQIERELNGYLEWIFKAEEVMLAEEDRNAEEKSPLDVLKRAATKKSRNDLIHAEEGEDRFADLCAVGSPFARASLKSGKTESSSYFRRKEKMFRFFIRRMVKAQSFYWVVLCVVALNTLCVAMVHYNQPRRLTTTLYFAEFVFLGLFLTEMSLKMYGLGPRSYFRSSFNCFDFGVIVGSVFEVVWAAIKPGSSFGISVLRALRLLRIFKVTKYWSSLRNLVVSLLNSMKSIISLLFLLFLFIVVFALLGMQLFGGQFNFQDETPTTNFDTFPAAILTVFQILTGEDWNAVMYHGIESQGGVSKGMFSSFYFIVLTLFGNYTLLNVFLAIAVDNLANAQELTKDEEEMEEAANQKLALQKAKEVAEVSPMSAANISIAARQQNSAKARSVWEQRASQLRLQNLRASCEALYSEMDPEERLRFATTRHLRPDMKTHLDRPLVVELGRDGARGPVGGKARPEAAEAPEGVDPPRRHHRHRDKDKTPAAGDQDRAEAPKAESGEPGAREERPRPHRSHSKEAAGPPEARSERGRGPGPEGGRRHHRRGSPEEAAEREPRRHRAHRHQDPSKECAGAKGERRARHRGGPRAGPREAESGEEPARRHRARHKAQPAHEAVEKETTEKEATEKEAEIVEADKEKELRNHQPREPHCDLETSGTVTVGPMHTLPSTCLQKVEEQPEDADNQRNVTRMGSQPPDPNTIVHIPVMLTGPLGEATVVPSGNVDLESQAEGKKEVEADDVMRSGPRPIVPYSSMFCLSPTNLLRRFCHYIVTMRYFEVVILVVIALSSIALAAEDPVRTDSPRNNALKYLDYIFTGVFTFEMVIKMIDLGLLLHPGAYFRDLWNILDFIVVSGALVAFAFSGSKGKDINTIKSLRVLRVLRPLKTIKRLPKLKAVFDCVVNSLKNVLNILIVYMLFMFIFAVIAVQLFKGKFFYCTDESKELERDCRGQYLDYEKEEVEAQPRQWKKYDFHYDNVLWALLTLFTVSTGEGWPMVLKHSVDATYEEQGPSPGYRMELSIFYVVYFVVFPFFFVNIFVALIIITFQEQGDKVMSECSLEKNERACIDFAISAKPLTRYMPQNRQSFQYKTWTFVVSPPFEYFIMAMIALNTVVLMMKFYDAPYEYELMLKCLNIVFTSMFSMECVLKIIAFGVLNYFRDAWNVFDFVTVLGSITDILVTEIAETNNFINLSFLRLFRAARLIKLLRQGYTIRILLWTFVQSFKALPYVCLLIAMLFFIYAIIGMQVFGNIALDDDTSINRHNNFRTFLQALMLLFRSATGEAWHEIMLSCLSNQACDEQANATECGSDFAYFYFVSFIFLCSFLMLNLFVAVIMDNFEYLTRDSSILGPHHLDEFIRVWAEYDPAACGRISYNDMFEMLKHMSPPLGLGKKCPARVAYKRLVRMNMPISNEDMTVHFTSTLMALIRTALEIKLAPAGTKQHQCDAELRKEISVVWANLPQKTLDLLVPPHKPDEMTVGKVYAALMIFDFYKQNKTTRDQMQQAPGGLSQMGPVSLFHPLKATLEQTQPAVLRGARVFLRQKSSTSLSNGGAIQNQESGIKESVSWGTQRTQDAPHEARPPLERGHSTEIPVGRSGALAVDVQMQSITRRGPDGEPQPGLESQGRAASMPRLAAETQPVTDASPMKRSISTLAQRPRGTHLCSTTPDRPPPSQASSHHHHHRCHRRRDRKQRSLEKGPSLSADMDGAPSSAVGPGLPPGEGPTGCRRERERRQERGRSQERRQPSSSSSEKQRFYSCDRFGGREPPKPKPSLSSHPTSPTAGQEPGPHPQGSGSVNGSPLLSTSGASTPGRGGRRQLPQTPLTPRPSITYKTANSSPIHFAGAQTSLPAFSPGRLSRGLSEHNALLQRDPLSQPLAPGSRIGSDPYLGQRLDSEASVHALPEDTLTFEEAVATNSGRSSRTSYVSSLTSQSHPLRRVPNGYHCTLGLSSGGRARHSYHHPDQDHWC
Chain of N-type calcium channel (α1B (Cav2.2), β3 and α2δ subunits) in stable HEK cell line (P54284 whole entry partner): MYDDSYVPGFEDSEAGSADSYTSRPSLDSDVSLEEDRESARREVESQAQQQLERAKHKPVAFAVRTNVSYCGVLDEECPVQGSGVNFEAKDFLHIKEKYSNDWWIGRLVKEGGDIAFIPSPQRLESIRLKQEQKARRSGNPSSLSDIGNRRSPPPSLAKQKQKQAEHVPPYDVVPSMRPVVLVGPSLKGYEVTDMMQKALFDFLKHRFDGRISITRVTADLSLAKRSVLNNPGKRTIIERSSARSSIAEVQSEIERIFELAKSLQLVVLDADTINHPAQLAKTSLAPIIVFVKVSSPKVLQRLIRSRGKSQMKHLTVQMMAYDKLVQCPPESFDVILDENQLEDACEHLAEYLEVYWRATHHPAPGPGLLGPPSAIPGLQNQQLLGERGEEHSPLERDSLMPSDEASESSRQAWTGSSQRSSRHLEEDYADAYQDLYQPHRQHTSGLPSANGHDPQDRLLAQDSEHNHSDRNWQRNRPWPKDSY
Chain of N-type calcium channel (α1B (Cav2.2), β3 and α2δ subunits) in stable HEK cell line (P54289 25-1103 partner): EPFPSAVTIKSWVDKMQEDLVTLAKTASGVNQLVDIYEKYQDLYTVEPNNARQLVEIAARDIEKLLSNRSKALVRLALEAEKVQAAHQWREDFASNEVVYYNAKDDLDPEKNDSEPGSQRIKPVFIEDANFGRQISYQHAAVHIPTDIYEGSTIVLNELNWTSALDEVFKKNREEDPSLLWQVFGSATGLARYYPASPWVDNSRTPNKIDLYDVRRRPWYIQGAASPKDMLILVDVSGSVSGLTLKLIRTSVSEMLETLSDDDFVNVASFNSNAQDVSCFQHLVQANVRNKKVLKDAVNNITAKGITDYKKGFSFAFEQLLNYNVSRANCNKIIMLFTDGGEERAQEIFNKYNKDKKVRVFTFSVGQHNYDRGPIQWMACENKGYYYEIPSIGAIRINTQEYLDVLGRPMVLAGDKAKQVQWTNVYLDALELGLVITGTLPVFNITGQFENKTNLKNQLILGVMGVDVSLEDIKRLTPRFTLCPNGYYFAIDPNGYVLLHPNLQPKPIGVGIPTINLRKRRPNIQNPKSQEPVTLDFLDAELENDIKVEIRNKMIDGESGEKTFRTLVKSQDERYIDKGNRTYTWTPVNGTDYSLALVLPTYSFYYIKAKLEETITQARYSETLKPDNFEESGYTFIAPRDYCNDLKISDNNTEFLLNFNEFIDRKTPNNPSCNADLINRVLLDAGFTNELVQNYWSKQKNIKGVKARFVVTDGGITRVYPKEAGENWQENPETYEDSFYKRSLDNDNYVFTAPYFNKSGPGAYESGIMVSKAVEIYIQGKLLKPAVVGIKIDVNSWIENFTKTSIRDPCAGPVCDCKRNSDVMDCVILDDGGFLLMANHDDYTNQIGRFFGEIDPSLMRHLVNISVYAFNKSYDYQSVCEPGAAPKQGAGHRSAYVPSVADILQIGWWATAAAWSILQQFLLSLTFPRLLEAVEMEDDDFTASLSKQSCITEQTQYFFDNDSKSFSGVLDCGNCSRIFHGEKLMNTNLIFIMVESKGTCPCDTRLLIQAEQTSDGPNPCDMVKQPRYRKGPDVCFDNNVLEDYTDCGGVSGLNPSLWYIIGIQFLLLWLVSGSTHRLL
Description: A stable cell line (HEK parent) co-expressing the α1B (Cav2.2), β3 and α2δ subunits of the N-type calcium channel subunits was used. These cells were routinely grown as monolayers in low glucose-containing Dulbecco's Modified Eagle Medium supplemented with 10% FBS, 2 mM L-glutamine, 100 I.U./mL penicillin, 100 μg/mL streptomycin, 400 μg/mL G418 and 200 μg/mL Zeocin (split ratio=1:5). Cells were maintained in 5% CO2 at 37° C. Compounds of Formula (I) were prepared as 10 mM stocks in DMSO from neat compound, if available. Otherwise, the 5 or 10 mM DMSO stock solutions provided in-house were used.
Calcium mobilization responses to KCl depolarization were evaluated by measuring the intensity of calcium-mediated fluorescent signal in the presence of BD Calcium Assay Dye (BD Biosciences, Franklin Lakes, N.J., U.S.A.), utilizing a Functional Drug Screening System (FDSS) by Hamamatsu Corporation (Bridgewater, N.J. U.S.A.).
Twenty-four hr prior to assay, cells were seeded in clear-base poly-D-lysine-coated 384-well plates (BD Biosciences) at a density of 5,000 cells per well in culture medium and grown overnight in 5% CO2 at 37° C. On the day of assay, growth media were removed, and cells were loaded with BD calcium assay dye (BD Biosciences) for 35 min at 37° C. under 5% CO2 and then for 25 min at room temp. Utilizing the FDSS, cells were exposed to representative compounds of Formula (I) at varying concentrations, and intracellular calcium was measured for 5 min prior to the addition of 50 mM KCl for an additional 3 min of measurement.
IC50 values for representative compounds of Formula (I) were determined from six-point concentration-response experiments and represent the concentration of said compound required to inhibit 50% of the maximal response. Maximal fluorescence intensity (FI) achieved upon addition of 50 mM KCl was exported from the FDSS software and further analyzed using GraphPad Prism 3.02 (Graph Pad Software Inc., San Diego, Calif., U.S.A.). Data were normalized to the maximum average counts from quadruplicate wells for each condition in the presence of 50 mM KCl and to the minimum average counts in the presence of buffer. Theoretical curves were generated using nonlinear regression curve-fitting analysis of either sigmoidal concentration-response or sigmoidal concentration-response (variable slope), and the IC50 values with the best-fit curve determined by GraphPad Prism were reported.

[2] = system: CFA-induced thermal hyperalgesia; assay: Complete Freund's Adjuvant (CFA)-induced hyperalgesia, radiant heat; type: in vivo, Sprague-Dawley rats; conditions: FIG. 1, numbers not given
[3] = high-frequency stimulation (15th pulse of train, 5 Hz), read-out: QPatch at High Frequency % Inhibition at 0.1 μM
[4] = low-frequency stimulation (1st pulse of train), read-out: QPatch at Low Frequency % Inhibition at 0.1 μM

Chain of N-type calcium channel (Q00975 whole entry): as the sequence (Q00975 whole entry) above
Chain of N-type calcium channel (P54284 whole entry partner): as the sequence (P54284 whole entry partner) above
Chain of N-type calcium channel (P54289 25-1103 partner): as the sequence (P54289 25-1103 partner) above

COc1ccccc1-n1nc(OC2CN(C(=O)N(C)OC)C2)cc1-c1ccc(Cl)cc1 [Compound 29, 3-{[5-(4-Chlorophenyl)-1-(2-methoxyphenyl)-1H-pyrazol-3-yl]oxy}-N-methoxy-N-methylazetidine-1-carboxamide]
inhibition at 0.1 µM (N-type calcium channel; [3]): 1% | inhibition at 0.1 µM (N-type calcium channel; [4]): -24% | inhibition at 0.33 µM [1]: 94% | IC50 [1]: 14 nM

COc1ccccc1-n1nc(OC2CCN(S(=O)(=O)C3CC3)CC2)cc1-c1ccc(Cl)cc1 [Compound 15, 4-{[5-(4-Chlorophenyl)-1-(2-methoxyphenyl)-1H-pyrazol-3-yl]oxy}-1-(cyclopropylsulfonyl)piperidine]
inhibition at 0.1 µM (N-type calcium channel; [3]): 55% | inhibition at 0.1 µM (N-type calcium channel; [4]): 25% | IC50 [1]: 9 nM

COc1ccc(-c2cc(OC3CC(C)(C)OC(C)(C)C3)nn2-c2ccccc2OC)cc1 [Compound 31, 1-(2-Methoxyphenyl)-5-(4-methoxyphenyl)-3-[(2,2,6,6-tetramethyltetrahydro-2H-pyran-4-yl)oxy]-1H-pyrazole]
inhibition at 0.1 µM (N-type calcium channel; [3]): 44% | inhibition at 0.1 µM (N-type calcium channel; [4]): 28% | inhibition at 0.33 µM [1]: 97% | IC50 [1]: 9.4 nM

COc1ccccc1-n1nc(OC2CCN(S(=O)(=O)C(C)C)CC2)cc1-c1ccc(Cl)cc1 [Compound 21, 4-{[5-(4-Chlorophenyl)-1-(2-methoxyphenyl)-1H-pyrazol-3-yl]oxy}-1-[(1-methylethyl)sulfonyl]piperidine]
inhibition at 0.1 µM (N-type calcium channel; [3]): 23% | inhibition at 0.1 µM (N-type calcium channel; [4]): 15% | inhibition at 0.33 µM [1]: 95% | IC50 [1]: 36 nM

COc1ccccc1-n1nc(OC2CN(S(C)(=O)=O)C2)cc1-c1ccc(Cl)cc1 [Compound 26, 5-(4-Chlorophenyl)-1-(2-methoxyphenyl)-3-{[1-(methylsulfonyl)azetidin-3-yl]oxy}-1H-pyrazole]
inhibition at 0.1 µM (N-type calcium channel; [3]): 40% | inhibition at 0.1 µM (N-type calcium channel; [4]): 37% | inhibition at 0.33 µM [1]: 91% | IC50 [1]: 31 nM

COc1ccccc1-n1nc(OC2CN(S(=O)(=O)c3c(C)noc3C)C2)cc1-c1ccc(Cl)cc1 [Compound 30, 4-[(3-{[5-(4-Chlorophenyl)-1-(2-methoxyphenyl)-1H-pyrazol-3-yl]oxy}azetidin-1-yl)sulfonyl]-3,5-dimethylisoxazole]
inhibition at 0.1 µM (N-type calcium channel; [3]): 53% | inhibition at 0.1 µM (N-type calcium channel; [4]): 30% | inhibition at 0.33 µM [1]: 93% | IC50 [1]: 8 nM

COc1ccc(-c2cc(O[C@H]3CC(C)(C)[S@@+]([O-])C(C)(C)C3)nn2-c2ccccc2OC)cc1 [Compound 35, (1s,4s)-4-((1-(2-methoxyphenyl)-5-(4-methoxyphenyl)-1H-pyrazol-3-yl)oxy)-2,2,6,6-tetramethyltetrahydro-2H-thiopyran 1-oxide]
% Inhibition (%) at 0.33 μM [1]: 91% | IC50 [1]: 7.6 nM

COc1ccccc1-n1nc(OC2CC(C)(C)C(=O)C(C)(C)C2)cc1-c1ccc(Cl)cc1 [Compound 41, 4-{[5-(4-Chlorophenyl)-1-(2-methoxyphenyl)-1H-pyrazol-3-yl]oxy}-2,2,6,6-tetramethylcyclohexanone]
inhibition at 0.33 µM [1]: 92%

COc1ccccc1-n1nc(O[C@H]2CC(C)(C)[S@+]([O-])C(C)(C)C2)cc1-c1ccc(C#N)cc1 [Compound 46]
% Inhibition (%) at 0.33 μM [1]: 90% | IC50 [1]: 14 nM

COc1ccccc1-n1nc(OC2CC(C)(C)OC(C)(C)C2)cc1-c1ccc(Cl)cc1 [Compound 23, 5-(4-chlorophenyl)-1-(2-methoxyphenyl)-3-((2,2,6,6-tetramethyltetrahydro-2H-pyran-4-yl)oxy)-1H-pyrazole]
inhibition at 0.1 µM (N-type calcium channel; [3]): 37% | inhibition at 0.1 µM (N-type calcium channel; [4]): 11% | inhibition at 0.33 µM [1]: 96% | IC50 [1]: 7.6 nM | effect in rat CFA radiant heat model of inflammatory pain [2]: antihyperalgesic effect

CCc1ccccc1-n1nc(OC2CCC3(CC2)OCCO3)cc1-c1ccc(Cl)cc1 [Compound 17, 5-(4-Chlorophenyl)-3-(1,4-dioxaspiro[4.5]dec-8-yloxy)-1-(2-ethylphenyl)-1H-pyrazole]
IC50 [1]: 81 nM

CC(C)Oc1ccccc1-n1nc(OC2CCN(S(C)(=O)=O)CC2)cc1-c1ccc(Cl)cc1 [Compound 20, 4-({5-(4-Chlorophenyl)-1-[2-(1-methylethoxy)phenyl]-1H-pyrazol-3-yl}oxy)-1-(methylsulfonyl)piperidine]
inhibition at 0.1 µM (N-type calcium channel; [3]): 37% | inhibition at 0.1 µM (N-type calcium channel; [4]): 24% | IC50 [1]: 21.5 nM

COc1ccccc1-n1nc(OC2CC(C)(C)OC(C)(C)C2)cc1-c1ccc(C#N)cc1 [Compound 43, 4-{1-(2-Methoxyphenyl)-3-[(2,2,6,6-tetramethyltetrahydro-2H-pyran-4-yl)oxy]-1H-pyrazol-5-yl}benzonitrile]
inhibition at 0.33 µM [1]: 90% | IC50 [1]: 7.2 nM

COc1ccccc1-n1nc(OC2CC(C)(C)S(=O)(=O)C(C)(C)C2)cc1-c1ccc(C#N)cc1 [Compound 45, 4-{1-(2-Methoxyphenyl)-3-[(2,2,6,6-tetramethyl-1,1-dioxidotetrahydro-2H-thiopyran-4-yl)oxy]-1H-pyrazol-5-yl}benzonitrile]
inhibition at 0.33 µM [1]: 99% | IC50 [1]: 2.4 nM

COc1ccccc1-n1nc(OC2CCN(S(=O)(=O)C(F)(F)F)CC2)cc1-c1ccc(Cl)cc1 [Compound 14, 4-{[5-(4-Chlorophenyl)-1-(2-methoxyphenyl)-1H-pyrazol-3-yl]oxy}-1-[(trifluoromethyl)sulfonyl]piperidine]
IC50 [1]: 24 nM

COc1ccccc1-n1nc(OC2CC(C)(C)S(=O)(=O)C(C)(C)C2)cc1-c1ccc(Cl)cc1 [Compound 37, 5-(4-Chlorophenyl)-1-(2-methoxyphenyl)-3-[(2,2,6,6-tetramethyl-1,1-dioxidotetrahydro-2H-thiopyran-4-yl)oxy]-1H-pyrazole]
inhibition at 0.33 µM [1]: 98% | IC50 [1]: 1.9 nM

COc1ccccc1-n1nc(OC2CC(C)(C)SC(C)(C)C2)cc1-c1ccc(C#N)cc1 [Compound 44, 4-{1-(2-Methoxyphenyl)-3-[(2,2,6,6-tetramethyltetrahydro-2H-thiopyran-4-yl)oxy]-1H-pyrazol-5-yl}benzonitrile]
inhibition at 0.33 µM [1]: 87% | IC50 [1]: 12 nM
